Columns and labels:
[1] = system: murine and human cell lines; test: Whole genome expression analysis, statements over several cell lines; format: cell-based
Experimental: (§1) The cells were harvested and RNA was isolated using RNeasy Mini Kit (Qiagen, Hilden, Germany) according to the instructions of the manufacturer. The isolated RNA (250 ng) was processed further using standard protocols as described recently with the exception of the 3′ IVT Express Kit (Affymetrix, High Wycombe, UK) that was utilized according to instructions. Quality control of cRNA was done with the Agilent 2100 Bioanalyzer (Agilent Tech according to manufacturer's protocols. Following fragmentation, cRNA of each sample was hybridized to Affymetrix GeneChip® Mouse Genome 430 2.0 or Human Genome U133 Plus 2.0 and scanned with an Affymetrix 3000 7G scanner.
(§2) The resultant data was normalized by Probe Logarithmic Intensity Error Estimation (PLIER) algorithm. Statistical analysis was carried out with the ArrayTrack software (National Center for Toxicological Research/FDA, Jefferson, AR, USA) using SAM algorithm.

all tested cell lines = test: Caspase-Glo 3/7 activity assay, all tested cell lines; format: cell-based; details: IC50 concentration, 24 h; vs vehicle
Experimental: According to instructions, Caspase-Glo® 3/7 assay (Promega GmbH, Mannheim, Germany) was used for monitoring caspase activity. Briefly, the same volume Caspase-Glo reagent as culture medium was added and incubated 1 h at room temperature. Luminescence was read with a Victor3 Wallac 1420 Multilabel counter (PerkinElmer, Rodgau, Germany). Background absorbance (medium only) was subtracted and the data given as percent of vehicle controls.

c-Abl = molecular target: T1, c-Abl (Homo sapiens, UniProt P00519); test: Abl filter-binding kinase assay (Abtide, [γ-32P]ATP); format: biochemical; details: isolated Abl; calculated from ID50, ATP-competitive; E0 0.005, S0 0.012 µM
T1 construct: His tag; purchased Upstate (Lake Placid, NY, USA)
Method in brief: (§3)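 Radiometric filter read-out with recombinant His-tagged human enzymes. Src used 0.125 pmol enzyme and 0.160 pmol [γ-32P]ATP with kit peptide; Abl used Abtide, […], 0.012 µM ATP, pH 7.5 Tris, 30 °C for 10 min. Ki derived from ID50 via ATP-competitive equation accounting for enzyme concentration.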

tumour cell lines = test: Cell cycle analysis, statements over the cell line panel; format: cell-based; details: IC50 concentration, 96 h
Experimental: CycleTEST™ PLUS DNA Reagent Kit (Becton Dickinson GmbH, Heidelberg, Germany) for cell cycle analysis was used, according to the instructions of the manufacturer. Briefly, the cells were harvested with trypsin, washed with PBS, and resuspended in CycleTEST Buffer. The cells were centrifuged and resuspended in solution A. After incubation for 10 min at room temperature, solution B was added and incubated. After adding solution C, the samples were incubated at 4°C protected from light. The samples were stored on ice and protected from light until analysis by FACScan flow cytometer (Becton Dickinson GmbH, Heidelberg, Germany).

CaCo2 = test: Whole genome expression analysis (Affymetrix microarray); format: cell-based, human
Experimental: as §1, §2

HepG2 = test: as above; format: cell-based, human
Experimental: as §1, §2

A549 = test: as above; format: cell-based, human
Experimental: as §1, §2

c-Src = molecular target: T2, c-Src (Homo sapiens, UniProt P12931); test: Src filter-binding kinase assay (Src Assay Kit); format: biochemical; details: isolated Src; calculated from ID50, ATP-competitive; E0 0.005, S0 0.012 µM
T2 construct: His tag; purchased Upstate (Lake Placid, NY, USA)
Method in brief: as §3

A2C12 = test: Whole genome expression analysis (Affymetrix microarray); format: cell-based, mouse
[2] = IC50 concentration, 96 h, SAM FDR<0.01, FC>2

T2 sequence (P12931 whole entry): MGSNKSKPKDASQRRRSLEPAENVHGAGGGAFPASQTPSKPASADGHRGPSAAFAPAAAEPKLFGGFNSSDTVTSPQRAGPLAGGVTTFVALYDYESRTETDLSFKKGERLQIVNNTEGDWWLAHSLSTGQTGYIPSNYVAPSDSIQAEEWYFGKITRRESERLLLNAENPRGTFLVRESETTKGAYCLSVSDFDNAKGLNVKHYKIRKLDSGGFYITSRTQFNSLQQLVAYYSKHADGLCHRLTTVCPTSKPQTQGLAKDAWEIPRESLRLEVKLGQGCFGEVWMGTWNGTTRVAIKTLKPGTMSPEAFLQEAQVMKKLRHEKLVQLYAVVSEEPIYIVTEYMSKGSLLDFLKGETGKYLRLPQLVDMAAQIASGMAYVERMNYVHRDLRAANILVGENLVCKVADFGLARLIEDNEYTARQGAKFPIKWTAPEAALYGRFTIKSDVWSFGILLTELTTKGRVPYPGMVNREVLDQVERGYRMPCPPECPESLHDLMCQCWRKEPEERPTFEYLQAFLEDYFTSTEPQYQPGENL
T1 sequence (P00519 whole entry): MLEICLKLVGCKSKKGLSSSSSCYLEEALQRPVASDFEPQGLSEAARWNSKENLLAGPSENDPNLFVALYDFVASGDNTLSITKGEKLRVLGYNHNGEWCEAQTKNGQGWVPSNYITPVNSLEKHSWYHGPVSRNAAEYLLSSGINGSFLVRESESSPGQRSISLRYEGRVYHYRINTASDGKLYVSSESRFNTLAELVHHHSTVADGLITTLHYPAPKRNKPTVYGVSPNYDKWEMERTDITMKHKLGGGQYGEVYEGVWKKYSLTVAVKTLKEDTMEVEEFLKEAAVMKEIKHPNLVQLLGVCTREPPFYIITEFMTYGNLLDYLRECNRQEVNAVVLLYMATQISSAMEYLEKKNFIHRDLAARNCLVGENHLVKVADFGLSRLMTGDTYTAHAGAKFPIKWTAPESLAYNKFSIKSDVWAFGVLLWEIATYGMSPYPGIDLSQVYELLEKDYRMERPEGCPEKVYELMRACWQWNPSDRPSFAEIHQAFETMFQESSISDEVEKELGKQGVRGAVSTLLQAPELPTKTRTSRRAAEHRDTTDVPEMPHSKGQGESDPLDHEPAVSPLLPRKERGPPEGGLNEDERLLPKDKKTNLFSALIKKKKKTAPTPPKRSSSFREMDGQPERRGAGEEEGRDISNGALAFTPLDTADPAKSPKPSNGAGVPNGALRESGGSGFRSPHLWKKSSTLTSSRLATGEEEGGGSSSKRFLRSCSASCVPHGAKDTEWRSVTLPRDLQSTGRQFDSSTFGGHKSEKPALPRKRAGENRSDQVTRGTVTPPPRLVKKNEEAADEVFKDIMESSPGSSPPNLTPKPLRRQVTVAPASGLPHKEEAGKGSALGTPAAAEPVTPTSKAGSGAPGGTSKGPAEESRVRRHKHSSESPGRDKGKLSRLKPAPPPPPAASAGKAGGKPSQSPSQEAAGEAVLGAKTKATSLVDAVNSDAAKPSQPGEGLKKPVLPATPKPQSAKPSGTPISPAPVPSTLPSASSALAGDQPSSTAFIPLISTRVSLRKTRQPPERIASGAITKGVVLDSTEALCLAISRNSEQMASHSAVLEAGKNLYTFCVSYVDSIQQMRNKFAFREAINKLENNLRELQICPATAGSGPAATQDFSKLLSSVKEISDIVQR

Structure (SMILES): Fc1ccccc1CNc1ncnc2c1cnn2CC(Cl)c1ccc(Br)cc1 (stereo not drawn) [Si162]
- Commonly regulated genes in both murine cell lines (number) ([1]; A2C12 and GammaA3, Fig. 4D): 259
- Genes regulated in common amongst all three human cell lines (number) ([1]; A549, CaCo2, HepG2, Fig. 4B): two
- Change of caspase-3/7 activity in all cell lines (all tested cell lines): increased
- Ki (c-Abl): 444 nM
- Cell cycle arrest (phase, in words) (tumour cell lines): arrest in G2/M
- Cav1 (caveolin 1, caveolae protein, 22kDa) regulated gene, Si162 vs Ktr FC (CaCo2): 2.45
- Ceacam6 (carcinoembryonic antigen-related cell adhesion molecule 6) regulated gene, Si162 vs Ktr FC (CaCo2): 1.49
- Mmp1 (matrix metallopeptidase 1 (interstitial collagenase)) regulated gene, Si162 vs Ktr FC (CaCo2): 1.71
- Pmaip1 (phorbol-12-myristate-13-acetate-induced protein 1 (Noxa)) regulated gene, Si162 vs Ktr FC (CaCo2): 1.12
- Tuba1a (tubulin, alpha 1a) regulated gene, Si162 vs Ktr FC (CaCo2): 1.01
- Vim (vimentin) regulated gene, Si162 vs Ktr FC (CaCo2): 1.80
- Significantly differentially regulated genes, downregulated (number) (CaCo2; [2]): 6
- Significantly differentially regulated genes, upregulated (number) (CaCo2; [2]): 75
- Akt2 (v-akt murine thymoma viral oncogene homolog 2) regulated gene, Si162 vs Ktr FC (HepG2): -4.47
- Bcl2l1 (BCL2-like 1) regulated gene, Si162 vs Ktr FC (HepG2): 1.08
- Birc5 (baculoviral IAP repeat-containing 5) regulated gene, Si162 vs Ktr FC (HepG2): -4.98
- Capn2 (calpain 2, (m/II) large subunit) regulated gene, Si162 vs Ktr FC (HepG2): 2.34
- Casp3 (caspase 3, apoptosis-related cysteine peptidase) regulated gene, Si162 vs Ktr FC (HepG2): 1.08
- Casp6 (caspase 6, apoptosis-related cysteine peptidase) regulated gene, Si162 vs Ktr FC (HepG2): 1.01
- Cdc2 (cell division cycle 2 (Cdk1)) regulated gene, Si162 vs Ktr FC (HepG2): -5.34
- Cdh1 (cadherin 1, type 1, E-cadherin (epithelial)) regulated gene, Si162 vs Ktr FC (HepG2): 1.32
- Cdkn1a (cyclin-dependent kinase inhibitor 1A (p21Cip1)) regulated gene, Si162 vs Ktr FC (HepG2): 1.62
- Cdkn2a (cyclin-dependent kinase inhibitor 2A (p16)) regulated gene, Si162 vs Ktr FC (HepG2): 2.03
- Cdkn2b (cyclin-dependent kinase inhibitor 2B (p15)) regulated gene, Si162 vs Ktr FC (HepG2): 3.43
- Cenpa (centromere protein A) regulated gene, Si162 vs Ktr FC (HepG2): -4.35
- Egfr (epidermal growth factor receptor) regulated gene, Si162 vs Ktr FC (HepG2): 1.36
- Fas (Fas (TNF receptor superfamily, member 6)) regulated gene, Si162 vs Ktr FC (HepG2): 2.46
- Grb10 (growth factor receptor-bound protein 10) regulated gene, Si162 vs Ktr FC (HepG2): 1.12
- Jun (jun oncogene) regulated gene, Si162 vs Ktr FC (HepG2): 1.14
- Mdm2 (Mdm2 p53 binding protein homolog (mouse)) regulated gene, Si162 vs Ktr FC (HepG2): 1.15
- Mmp3 (matrix metallopeptidase 3 (stromelysin 1, progelatinase)) regulated gene, Si162 vs Ktr FC (HepG2): 4.17
- Pdgfrb (platelet-derived growth factor receptor, beta polypeptide) regulated gene, Si162 vs Ktr FC (HepG2): -4.81
- Pmaip1 (phorbol-12-myristate-13-acetate-induced protein 1 (Noxa)) regulated gene, Si162 vs Ktr FC (HepG2): 1.37
- Tgfb1i1 (transforming growth factor beta 1 induced transcript 1) regulated gene, Si162 vs Ktr FC (HepG2): 1.86
- Tuba1a (tubulin, alpha 1a) regulated gene, Si162 vs Ktr FC (HepG2): 4.28
- Differentially expressed genes, total (number) (HepG2; IC50 concentration, 96 h): more than 1400
- Significantly differentially regulated genes, downregulated (number) (HepG2; [2]): 707
- Significantly differentially regulated genes, upregulated (number) (HepG2; [2]): 717
- Acta2 (actin, alpha 2, smooth muscle, aorta) regulated gene, Si162 vs Ktr FC (A549): 2.46
- Birc5 (baculoviral IAP repeat-containing 5) regulated gene, Si162 vs Ktr FC (A549): -6.60
- Capn12 (calpain 12) regulated gene, Si162 vs Ktr FC (A549): 1.16
- Ccna2 (cyclin A2) regulated gene, Si162 vs Ktr FC (A549): -6.93
- Ccnb1 (cyclin B1) regulated gene, Si162 vs Ktr FC (A549): -5.43
- Ccnb2 (cyclin B2) regulated gene, Si162 vs Ktr FC (A549): -6.15
- Cdc2 (cell division cycle 2 (Cdk1)) regulated gene, Si162 vs Ktr FC (A549): -7.06
- Cdh1 (cadherin 1, type 1, E-cadherin (epithelial)) regulated gene, Si162 vs Ktr FC (A549): 1.36
- Cdkn1a (cyclin-dependent kinase inhibitor 1A (p21Cip1)) regulated gene, Si162 vs Ktr FC (A549): 2.54
- Cdkn3 (cyclin-dependent kinase inhibitor 3) regulated gene, Si162 vs Ktr FC (A549): -5.90
- Ceacam6 (carcinoembryonic antigen-related cell adhesion molecule 6) regulated gene, Si162 vs Ktr FC (A549): 3.24
- Cenpa (centromere protein A) regulated gene, Si162 vs Ktr FC (A549): -6.17
- Ctsb (cathepsin B) regulated gene, Si162 vs Ktr FC (A549): 1.38
- Dgka (diacylglycerol kinase, alpha 80kDa) regulated gene, Si162 vs Ktr FC (A549): 1.92
- E2F1 (E2F transcription factor 1) regulated gene, Si162 vs Ktr FC (A549): -6.54
- Fas (Fas (TNF receptor superfamily, member 6)) regulated gene, Si162 vs Ktr FC (A549): 2.18
- Fn1 (fibronectin 1) regulated gene, Si162 vs Ktr FC (A549): 1.40
- Gadd45a (growth arrest and DNA-damage-inducible, alpha) regulated gene, Si162 vs Ktr FC (A549): 1.46
- Gsk3b (glycogen synthase kinase 3 beta) regulated gene, Si162 vs Ktr FC (A549): 1.51
- Inpp5d (inositol polyphosphate-5-phosphatase, 145kDa) regulated gene, Si162 vs Ktr FC (A549): 2.27
- Itgb4 (integrin, beta 4) regulated gene, Si162 vs Ktr FC (A549): 1.48
- Jun (jun oncogene) regulated gene, Si162 vs Ktr FC (A549): 1.36
- Mdm2 (Mdm2 p53 binding protein homolog (mouse)) regulated gene, Si162 vs Ktr FC (A549): 1.96
- Plk1 (polo-like kinase 1 (Drosophila)) regulated gene, Si162 vs Ktr FC (A549): -2.12
- Ptgs2 (prostaglandin-endoperoxide synthase 2) regulated gene, Si162 vs Ktr FC (A549): 1.27
- Tgfb1i1 (transforming growth factor beta 1 induced transcript 1) regulated gene, Si162 vs Ktr FC (A549): 1.15
- Tuba1a (tubulin, alpha 1a) regulated gene, Si162 vs Ktr FC (A549): 1.06
- Vtn (vitronectin) regulated gene, Si162 vs Ktr FC (A549): 4.54
- Significantly differentially regulated genes, downregulated (number) (A549; [2]): 472
- Significantly differentially regulated genes, upregulated (number) (A549; [2]): 785
- Ki (c-Src): 42 nM
- Actg2 (actin, gamma 2, smooth muscle, enteric) regulated gene, Si162 vs Ktr FC (A2C12): -4.94
- Ccl5 (chemokine (C-C motif) ligand 5) regulated gene, Si162 vs Ktr FC (A2C12): 2.52
- Ccna2 (cyclin A2) regulated gene, Si162 vs Ktr FC (A2C12): -4.48
- Ccnb2 (cyclin B2) regulated gene, Si162 vs Ktr FC (A2C12): -4.51
- Cenpa (centromere protein A) regulated gene, Si162 vs Ktr FC (A2C12): -4.34
- Ctsb (cathepsin B) regulated gene, Si162 vs Ktr FC (A2C12): 1.13
- Cxcl12 (chemokine (C-X-C motif) ligand 12) regulated gene, Si162 vs Ktr FC (A2C12): -1.05
- Errfi1 (ERBB receptor feedback inhibitor 1) regulated gene, Si162 vs Ktr FC (A2C12): -4.38
- Gadd45a (growth arrest and DNA-damage-inducible, alpha) regulated gene, Si162 vs Ktr FC (A2C12): 1.40
- Itga5 (integrin, alpha 5 (fibronectin receptor, alpha polypeptide)) regulated gene, Si162 vs Ktr FC (A2C12): -4.81
- Mdm2 (Mdm2 p53 binding protein homolog (mouse)) regulated gene, Si162 vs Ktr FC (A2C12): 1.88
- Mmp3 (matrix metallopeptidase 3 (stromelysin 1, progelatinase)) regulated gene, Si162 vs Ktr FC (A2C12): 3.28
- Mmp13 (matrix metallopeptidase 13 (collagenase 3)) regulated gene, Si162 vs Ktr FC (A2C12): 3.90
- Nfib (nuclear factor I/B) regulated gene, Si162 vs Ktr FC (A2C12): -4.56
- Ogn (osteoglycin) regulated gene, Si162 vs Ktr FC (A2C12): -5.77
- Pdgfrb (platelet-derived growth factor receptor, beta polypeptide) regulated gene, Si162 vs Ktr FC (A2C12): -4.68
- Plk1 (polo-like kinase 1 (Drosophila)) regulated gene, Si162 vs Ktr FC (A2C12): -4.48
- Ptn (pleiotrophin) regulated gene, Si162 vs Ktr FC (A2C12): -4.92
- Sfrp1 (secreted frizzled-related protein 1) regulated gene, Si162 vs Ktr FC (A2C12): 1.12
- Spp1 (secreted phosphoprotein 1) regulated gene, Si162 vs Ktr FC (A2C12): 1.21
- Srf (serum response factor) regulated gene, Si162 vs Ktr FC (A2C12): -4.68
- Tgfb1i1 (transforming growth factor beta 1 induced transcript 1) regulated gene, Si162 vs Ktr FC (A2C12): -4.59
- Tgfb3 (transforming growth factor, beta 3) regulated gene, Si162 vs Ktr FC (A2C12): -4.49
- Tlr4 (toll-like receptor 4) regulated gene, Si162 vs Ktr FC (A2C12): 1.09
- Tnc (tenascin C) regulated gene, Si162 vs Ktr FC (A2C12): -5.20
- Tp53 (tumor protein p53) regulated gene, Si162 vs Ktr FC (A2C12): -4.50
- Zyx (zyxin) regulated gene, Si162 vs Ktr FC (A2C12): -5.47
- Significantly regulated genes, total (number) (A2C12; IC50 concentration, 96 h): > 500
- Significantly differentially regulated genes, downregulated (number) (A2C12; [2]): 212
- Significantly differentially regulated genes, upregulated (number) (A2C12; [2]): 357

Source: publication PMC2994747, “Molecular Characterization of c-Abl/c-Src Kinase Inhibitors Targeted against Murine Tumour Progenitor Cells that Express Stem Cell Markers” (PLoS ONE, 2010)
